Values quoted from earlier work, collected in patent US12636282B1 (priority 2020, dated 2026).
Read-outs that look alike come from different tables or passages of the source.

Legend:
[1] = system: Coxackievirus B; settings: in vivo; through suppressing viral replication and inflammatory responses
[2] = system: lethal influenza infections; settings: mice, lethal influenza infection
[3] = system: influenza; settings: NAC 600 mg twice a day for 6 months; 79% with placebo
[4] = system: COVID-19; settings: early uncontrolled study

## CCN(CCO)CCCC(C)Nc1ccnc2cc(Cl)ccc12 (stereo not drawn) [HCQ, hydroxychloroquine]
After 6 years of HCQ use
  Retinal toxicity, share of patients: 1.8%
After 11 years of HCQ use
  Retinal toxicity, share of patients: 3.3%
After 16 years of HCQ use
  Retinal toxicity, share of patients: 11.5%

## CC(=O)N[C@@H](CS)C(=O)O [NAC, N-acetyl cysteine]
[1]
  Coxackievirus B-induced myocarditis: effectively alleviates
[2]
  Survival: 20%
[3]
  virus-infected subjects developing flu symptoms: 25%

## CCOC(=O)C1=C[C@@H](OC(CC)CC)[C@H](NC(C)=O)[C@@H](N)C1 [oseltamivir]
[2]
  Survival: 60%

## Tocilizumab: interleukin 6 (IL-6) receptor antibody
[4]
  fever: rapidly reduction in fever
  oxygenation: improvement in oxygenation
